In US20030100580A1, “Urotensin-II receptor antagonists” (priority 2002, published 2003):
Blank lines part the entries; values can stand above or below the molecule they belong to.

Experiments:
[1] = tested on: rat-isolated aorta; settings: cited from earlier work
[2] = molecular target: T1, cloned human and rat GPR-14 (UniProt Q9UKP6); experiment: Radioligand binding ([125I] h-U-II) to HEK-293 cell membranes containing GPR-14; settings: HEK-293 membranes, 200 pM [125I] h-U-II; human or rat receptor not specified
T1 sequence (Q9UKP6 1-389): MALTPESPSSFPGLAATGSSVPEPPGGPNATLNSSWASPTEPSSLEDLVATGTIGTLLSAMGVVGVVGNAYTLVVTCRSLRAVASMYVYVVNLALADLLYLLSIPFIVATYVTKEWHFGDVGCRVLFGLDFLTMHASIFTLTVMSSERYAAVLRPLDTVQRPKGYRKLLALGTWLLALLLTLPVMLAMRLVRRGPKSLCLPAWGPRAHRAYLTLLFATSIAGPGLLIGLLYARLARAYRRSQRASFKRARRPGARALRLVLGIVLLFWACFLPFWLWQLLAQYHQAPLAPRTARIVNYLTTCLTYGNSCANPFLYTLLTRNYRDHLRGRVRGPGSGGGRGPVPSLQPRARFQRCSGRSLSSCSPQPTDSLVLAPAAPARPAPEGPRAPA
Protocol: HEK-293 cell membranes containing stable cloned human and rat GPR-14 (20 ug/assay) were incubated with 200 pM [125I] h-U-II (200 Ci/mmol^−1 in the presence of increasing concentrations of test compounds in DMSO (0.1 nM to 10 uM), in a final incubation volume of 200 ul (20 mM Tris-HCl, 5 mM MgCl2). Incubation was done for 30 minutes at room temperature followed by filtration GF/B filters with Brandel cell harvester. ^125I labeled U-U binding was quantitated by gamma counting. Nonspecific binding was defined by ^1251I U-II binding in the presence of 100 nM of unlabeled human U-II. Analysis of the data was performed by nonlinear least square fitting.

SMILES: CC(C)[C@H](NC(=O)[C@@H]1CSSC[C@H](NC(=O)[C@H](CC(=O)O)NC(=O)[C@@H]2CCCN2C(=O)[C@@H](NC(=O)[C@@H](N)CCC(=O)O)[C@@H](C)O)C(=O)N[C@@H](Cc2ccccc2)C(=O)N[C@@H](Cc2c[nH]c3ccccc23)C(=O)N[C@@H](CCCCN)C(=O)N[C@@H](Cc2ccc(O)cc2)C(=O)N1)C(=O)O [Human Urotensin-II]
contractile activity [1]: most potent contractile agonist identified to date

Ki [2]: 1300 nM
SMILES: CN(C)CCOc1cc(NS(=O)(=O)c2ccc(Br)cc2)ccc1I [Example 8, 4-Bromo-N-[4-iodo-3-(2-dimethylamino-ethoxy)-phenyl]-benzenesulfonamide]

melting point: 228 to 229 °C
SMILES: COc1ccc(S(=O)(=O)Nc2ccc(Cl)c(OCCN(C)C)c2)cc1OC [Example 1, N-[4-Chloro-3-(2-dimethylamino-ethoxy)phenyl]-3,4-dimethoxy-benzenesulfonamide]
